Measured values as given in US7799343B2, “Safer control of broadleaf weeds in turf with granular formulations of ALS inhibiting herbicides” (priority 2006, dated 2010).

What was measured:
Format in all cases: in vivo
tall fescue = test: Turf tolerance field study, tall fescue, Indiana 2004; settings: 14 Days After Treatment, g ai/Ha: penoxsulam 35, imazaquin 104, bispyribac-sodium 75, trifloxysulfuron-sodium 9.2, metsulfuron-methyl 10.4; for Cover: 0 = bare ground, 100 = thick solid stand; for Color: 0 = brown to dead turf, 10 = lush green; for Injury: 0 = no visible injury, 10 = dead turf
Protocol: (§1) Turf tolerance studies were conducted in monoculture stands of perennial ryegrass and tall fescue. Replicated trials, containing a minimum of three replications and having individual plots ranging in size from 25 to 50 ft. sq (2.3 to 4.6 square meters), were initiated in the late spring when turf was actively growing. […] Natural rainfall and supplemental irrigation, fertilizer, fungicides and insecticides were used to maintain healthy turf throughout the study period. Turf tolerance evaluations were made weekly for 8 weeks after application. Evaluations compared treated and untreated plot areas and consisted of one or all of the following evaluations: 1) visual estimate of turf injury made on a 0 to 10 scale with 0 indicating no visible injury symptoms, 10 being dead turf and 3 or less being commercially acceptable; 2) visual estimate of turf color made on a 0 to 10 scale with 0 being brown to dead turf, 10 being a lush green turf of highest quality and 6.5 being commercially acceptable; 3) visual estimate of turf density made on a 0 to 100 scale with 0 being bare ground, 100 being a thick solid stand of highest quality and 90 percent density being commercially acceptable; 4) visual estimate of turf quality made on a 0 to 10 scale with 0 being brown to dead turf, 10 being a lush green turf of highest quality and 6.5 being commercially acceptable.

perennial ryegrass [1] = test: Turf tolerance field study, perennial ryegrass, Indiana 2004; settings: 21 Days After Treatment, g ai/Ha: penoxsulam 35, imazaquin 104, bispyribac-sodium 75, trifloxysulfuron-sodium 9.2, metsulfuron-methyl 10.4; for Cover: 0 = bare ground, 100 = thick solid stand; for Color: 0 = brown to dead turf, 10 = lush green; for Injury: 0 = no visible injury, 10 = dead turf
Protocol: as §1

perennial ryegrass [2] = test: Perennial ryegrass turf quality field study, Pennsylvania 2004; settings: perennial ryegrass, 0 = brown to dead turf, 10 = highest quality, g ai/Ha: penoxsulam 35, imazaquin 104, bispyribac-sodium 75, trifloxysulfuron-sodium 9.2, metsulfuron-methyl 10.4; for Turf Quality 4 DAA: 4 Days After Application; for Turf Quality 16 DAA: 16 Days After Application; for Turf Quality 36 DAA: 36 Days After Application
Protocol: as §1

[3] = system: dandelion, Taraxacum officinale (TAROF); test: Postemergent weed control field study, Pennsylvania 2004, TAROF; settings: Granule formulation, g ai/Ha: penoxsulam 35, imazaquin 104, bispyribac-sodium 75, trifloxysulfuron-sodium 9.2, metsulfuron-methyl 10.4; for Percent Weed Control TAROF 29DAA: 29 Days After Application; for Percent Weed Control TAROF 56DAA: 56 Days After Application
Excerpt: (§2) The ALS inhibiting herbicides are useful in controlling broadleaf weeds and sedges in turfgrass. They are particularly effective against most important weeds in this application, viz., white clover, Trifolium repens L. (TRFRE); buckhorn plantain, Plantago lanceolata L. (PLALA); dandelion, Taraxacum officinale (TAROF); broadleaf plantain, Plantago major L. (PLAMA); ground ivy, Glechoma hederacea L. (GLEHE); common lespedeza, Lespedeza striata (LESST); pennywort (dollarweed), Hydrocotyle spp (HYDSS); Virginia buttonweed, Diodia virginiana L. (DIQVI) English daisy, Bellis perennis L. (BELPE); annual bluegrass, Poa annua (POANN); and yellow nutsedge, Cypres esculentus L. (CYPES).
(§3) Field studies were conducted in established turfgrass sites containing a natural population of target broadleaf weeds. Replicated trials, containing a minimum of three replications and having individual plots ranging in size from 25 to 50 ft. sq (2.3 to 4.6 square meters), were initiated in the late spring when turf and weeds were actively growing. Granule treatments were uniformly applied to individual plots using a common hand-shaker method. Applications were made in the early morning when dew was present. Natural rainfall and supplemental irrigation were used to maintain healthy turf and active weed growth throughout the study period. Control of each weed species in the study site was made at approximately 2, 4 and 8 weeks after treatment. Control was determined visually by comparing treated and untreated weeds and scored on a 0 to 100 percent scale where 0 corresponds to no control and 100 corresponds to complete kill.

[4] = system: white clover, Trifolium repens L. (TRFRE); test: Postemergent weed control field study, Pennsylvania 2004, TRFRE; settings: g ai/Ha: penoxsulam 35, imazaquin 104, bispyribac-sodium 75, trifloxysulfuron-sodium 9.2, metsulfuron-methyl 10.4; for Percent Weed Control TRFRE 29DAA: 29 Days After Application; for Percent Weed Control TRFRE 56DAA: 56 Days After Application
Excerpt: as §2
as §3, with “Granule treatments were uniformly applied to individual plots using a common hand-shaker method.” left out

[5] = system: buckhorn plantain, Plantago lanceolata L. (PLALA); test: Postemergent weed control field study, Pennsylvania 2004, PLALA; settings: g ai/Ha: penoxsulam 35, imazaquin 104, bispyribac-sodium 75, trifloxysulfuron-sodium 9.2, metsulfuron-methyl 10.4; for Percent Weed Control PLALA 29DAA: 29 Days After Application; for Percent Weed Control PLALA 56DAA: 56 Days After Application
Excerpt: as §2
as §3, with “Granule treatments were uniformly applied to individual plots using a common hand-shaker method.” left out

[6] = system: annual bluegrass, Poa annua (POANN); test: Postemergent weed control field study, Pennsylvania 2004, POANN; settings: g ai/Ha: penoxsulam 35, imazaquin 104, bispyribac-sodium 75, trifloxysulfuron-sodium 9.2, metsulfuron-methyl 10.4; for Percent Weed Control POANN 29DAA: 29 Days After Application; for Percent Weed Control POANN 56DAA: 56 Days After Application
Excerpt: as §2, §3

[7] = system: dandelion, Taraxacum officinale (TAROF); test: Postemergent weed control field study, Pennsylvania 2004, TAROF; settings: Liquid formulation, g ai/Ha: penoxsulam 35, imazaquin 104, bispyribac-sodium 75, trifloxysulfuron-sodium 9.2, metsulfuron-methyl 10.4; for Percent Weed Control TAROF 29DAA: 29 Days After Application; for Percent Weed Control TAROF 56DAA: 56 Days After Application

SMILES	Cover (tall fescue; Granule formulation)	Color (tall fescue; Granule formulation)	Injury (tall fescue; Granule formulation)	Cover (tall fescue; Liquid formulation)	Color (tall fescue; Liquid formulation)	Injury (tall fescue; Liquid formulation)	Cover (perennial ryegrass [1]; Granule formulation)	Color (perennial ryegrass [1]; Granule formulation)	Injury (perennial ryegrass [1]; Granule formulation)	Cover (perennial ryegrass [1]; Liquid formulation)	Color (perennial ryegrass [1]; Liquid formulation)	Injury (perennial ryegrass [1]; Liquid formulation)	Turf Quality 4 DAA (perennial ryegrass [2]; Granule formulation)	Turf Quality 16 DAA (perennial ryegrass [2]; Granule formulation)	Turf Quality 36 DAA (perennial ryegrass [2]; Granule formulation)	Turf Quality 4 DAA (perennial ryegrass [2]; Liquid formulation)	Turf Quality 16 DAA (perennial ryegrass [2]; Liquid formulation)	Turf Quality 36 DAA (perennial ryegrass [2]; Liquid formulation)	Percent Weed Control TAROF 29DAA [3] [%]	Percent Weed Control TAROF 56DAA [3] [%]	further results
COc1cc(OC)nc(Oc2cccc(Oc3nc(OC)cc(OC)n3)c2C(=O)O)n1 [Bispyribac-sodium, bispyribac-sodium]	100.0 0-100 Scale	9.0 0-10 Scale	0.0 0-10 Scale	97.5 0-100 Scale	8.8 0-10 Scale	2.0 0-10 Scale	100.0 0-100 Scale	8.5 0-10 Scale	1.0 0-10 Scale	85.0 0-100 Scale	6.5 0-10 Scale	4.5 0-10 Scale	8.7 0 to 10 scale	7.3 0 to 10 scale	10.0 0 to 10 scale	8.0 0 to 10 scale	5.7 0 to 10 scale	10.0 0 to 10 scale	45.0	23.3	Percent Weed Control TRFRE 29DAA ([4]; Granule formulation): 36.1%; Percent Weed Control TRFRE 29DAA ([4]; Liquid formulation): 88.9%; Percent Weed Control TRFRE 56DAA ([4]; Liquid formulation): 55.6%; Percent Weed Control PLALA 29DAA ([5]; Granule formulation): 27.8%; Percent Weed Control PLALA 56DAA ([5]; Granule formulation): 27.8%; Percent Weed Control PLALA 29DAA ([5]; Liquid formulation): 75.6%; Percent Weed Control PLALA 56DAA ([5]; Liquid formulation): 57.8%; Percent Weed Control POANN 29DAA ([6]; Granule formulation): 40.0%; Percent Weed Control POANN 56DAA ([6]; Granule formulation): 28.9%; Percent Weed Control POANN 29DAA ([6]; Liquid formulation): 28.3%; Percent Weed Control POANN 56DAA ([6]; Liquid formulation): 23.3%; Percent Weed Control TAROF 29DAA [7]: 95.7%; Percent Weed Control TAROF 56DAA [7]: 57.1%
CC(C)C1(C)N=C(c2nc3ccccc3cc2C(=O)O)NC1=O (centres unmarked) [Imazaquin, imazaquin]	100.0 0-100 Scale	9.0 0-10 Scale	0.5 0-10 Scale	70.0 0-100 Scale	5.3 0-10 Scale	5.3 0-10 Scale	98.8 0-100 Scale	8.8 0-10 Scale	1.8 0-10 Scale	97.5 0-100 Scale	8.3 0-10 Scale	3.3 0-10 Scale	10.0 0 to 10 scale	3.0 0 to 10 scale	3.3 0 to 10 scale	7.7 0 to 10 scale	3.3 0 to 10 scale	7.7 0 to 10 scale	13.9	17.8	Percent Weed Control TRFRE 29DAA ([4]; Granule formulation): 0.0%; Percent Weed Control TRFRE 56DAA ([4]; Granule formulation): 23.3%; Percent Weed Control TRFRE 29DAA ([4]; Liquid formulation): 22.2%; Percent Weed Control TRFRE 56DAA ([4]; Liquid formulation): 11.1%; Percent Weed Control PLALA 29DAA ([5]; Granule formulation): 22.2%; Percent Weed Control PLALA 56DAA ([5]; Granule formulation): 41.1%; Percent Weed Control PLALA 29DAA ([5]; Liquid formulation): 16.7%; Percent Weed Control PLALA 56DAA ([5]; Liquid formulation): 8.3%; Percent Weed Control POANN 29DAA ([6]; Granule formulation): 31.4%; Percent Weed Control POANN 56DAA ([6]; Granule formulation): 18.1%; Percent Weed Control POANN 29DAA ([6]; Liquid formulation): 8.8%; Percent Weed Control POANN 56DAA ([6]; Liquid formulation): 26.2%; Percent Weed Control TAROF 29DAA [7]: 58.9%; Percent Weed Control TAROF 56DAA [7]: 11.1%
COc1cc(OC)nc(NC(=O)[N-]S(=O)(=O)c2ncccc2OCC(F)(F)F)n1.[Na+] [Trifloxysulfuron-sodium, trifloxysulfuron-sodium]	70.0 0-100 Scale	5.8 0-10 Scale	5.8 0-10 Scale	51.3 0-100 Scale	3.8 0-10 Scale	8.0 0-10 Scale	87.5 0-100 Scale	6.8 0-10 Scale	5.3 0-10 Scale	57.5 0-100 Scale	4.0 0-10 Scale	8.0 0-10 Scale	9.3 0 to 10 scale	4.3 0 to 10 scale	8.3 0 to 10 scale	7.7 0 to 10 scale	2.7 0 to 10 scale	1.3 0 to 10 scale	80.6	40.0	Percent Weed Control TRFRE 29DAA ([4]; Granule formulation): 80.0%; Percent Weed Control TRFRE 56DAA ([4]; Granule formulation): 56.7%; Percent Weed Control TRFRE 29DAA ([4]; Liquid formulation): 100.0%; Percent Weed Control TRFRE 56DAA ([4]; Liquid formulation): 100.0%; Percent Weed Control PLALA 29DAA ([5]; Granule formulation): 0.0%; Percent Weed Control PLALA 56DAA ([5]; Granule formulation): 11.1%; Percent Weed Control PLALA 29DAA ([5]; Liquid formulation): 0.0%; Percent Weed Control PLALA 56DAA ([5]; Liquid formulation): 33.3%; Percent Weed Control POANN 29DAA ([6]; Granule formulation): 34.5%; Percent Weed Control POANN 56DAA ([6]; Granule formulation): 39.9%; Percent Weed Control POANN 29DAA ([6]; Liquid formulation): 95.4%; Percent Weed Control POANN 56DAA ([6]; Liquid formulation): 77.2%; Percent Weed Control TAROF 29DAA [7]: 98.3%; Percent Weed Control TAROF 56DAA [7]: 100.0%
